# Results published in patent US20170216452A1, “ANTIBODIES AND ANTIBODY FRAGMENTS FOR SITE-SPECIFIC CONJUGATION” (Pfizer Inc., priority 2015, published 2017).
# Entries after “also recorded” stand apart in the source; their conditions may differ. Where two headings read alike, the source gives them in different places. Square brackets hold non-standard residues; d marks the D form. Peptide text beside a SMILES is read from it. * marks the point of attachment. Dolaproine = CO[C@@H]([C@@H]1CCCN1)[C@@H](C)C(=O)O; Dil = CC[C@H](C)[C@H](NC)[C@@H](CC(=O)O)OC; Doe = c1ccc(C[C@H](N*)c2nccs2)cc1; Aib = CC(C)(N)C(=O)O
# Tests used:
# PDX-PAX-13565 = PDX-PAX-13565 pancreatic PDX model; format: in vivo, mouse; conditions: 0.3, 1 and 3 mg/kg
# Text: (§1) To generate PDX models, tumors were collected from donor animals and tumor fragments approximately 3×3 mm were implanted subcutaneously into the flank of female athymic nude mice (for PDX-NSX-11122 model) or NOD SCID mice (for PDX-PAX-13565 and PDX-PAX-12534 models) by using a 10 gage trocar. When average tumor volume reached approximately 160 to 260 mm^3 the mice were randomized into treatment groups, with 7-10 mice in each group. ADCs or vehicle (PBS) dosing regime and administration route as well as tumor measurement procedures are the same as described above for CLX models.
# H-1975 = H-1975 NSCLC CLX model; format: in vivo, mouse
# Text: (§2) To generate CLX models, 8×10^6 to 10×10^6 cells of H-1975, HT29, or Ramos tumor lines were implanted into female athymic nude mice subcutaneously. Ramos and H-1975 cells for inoculation were suspended in 50% and 100% Matrigel (BD Biosciences), respectively. For the Ramos model, the animals received whole body irradiation (4 Gy) before cell inoculation to facilitate the establishment of tumors. When the average tumor volume reached approximately 160 to 320 mm^3, the animals were randomized into treatment groups, with 8-10 mice in each group. ADCs or vehicle (PBS) were administered intravenously on day 0 and then the animals were dosed once every 4 days for 4 to 8 doses. Tumors were measured once or twice weekly and tumor volume was calculated as volume (mm^3)=(width×width×length)/2.
# Ramos = Ramos lymphoma CLX model; format: in vivo, mouse; conditions: 3 mg/kg
# Text: as §2
# HT29 = HT29 colon CLX model; format: in vivo, mouse; conditions: 3 mg/kg
# Text: as §2
# PDX-NSX-11122 = PDX-NSX-11122 NSCLC PDX model; format: in vivo, mouse
# Text: as §1
# PDX-PAX-12534 = PDX-PAX-12534 pancreatic PDX model; format: in vivo, mouse; conditions: 0.3, 1 and 3 mg/kg
# Text: as §1
# [1] = tested on: HT29 colon carcinoma cells (EDB+FN negative); experiment: In vitro cytotoxicity of anti-EDB ADCs (Cell Titer Glo, 4 days); format: cell-based, human; conditions: four days, ng/ml of antibody
# Experimental: Proliferating WI38-VA13 or HT29 cells were harvested from culture flasks with non-enzymatic cell dissociation buffer and cultured overnight in 96-well plates (Corning) at 1000 cells/well in a humidified chamber (37° C., 5% CO2). […] In some experiments, cells were plated at 1500 cells/well and treated the same day. […] On harvest day, 50 μl of Cell Titer Glo (Promega) was added to the cells and incubated 0.5 hours at room temperature. […] Relative cell viability was determined as a percentage of untreated control wells. IC50 values were calculated using four-parameter logistic model #203 with XLfit v4.2 (IDBS).
# [2] = tested on: N87-T-DM1 cells (Mouse #7, #17, #2); experiment: Cytotoxicity studies (CellTiter Glo, 96 h) on cells relapsed from T-DM1 treatment in vivo; format: cell-based; conditions: for IC50: Mus musculus; for sensitivity of T-DM1 resistant cells generated in vivo: N87-T-DM1 cells compared to parental
# Experimental: (§3) Cells were incubated for 96 hours in a humidified 37° C./5% CO2 incubator.
# N87 parental cells = experiment: Cytotoxicity studies (CellTiter Glo, 96 h) on parental N87 cells (Example 15); format: cell-based; conditions: read-out: sensitivity to free payload (IC50), N87
# Experimental: as §3
# [3] = tested on: N87-TM cells (N87-TM-1, N87-TM-2); experiment: Cytotoxicity studies (MTS) on T-DM1 resistant N87-TM cells made in vitro; format: cell-based
# Experimental: N87 cells were passaged into two separate flasks and each flask was treated identically with respect to the resistance-generation protocol to enable biological duplicates. […] The procedure was intended to simulate the chronic, multi-cycle (on/off) dosing at maximally tolerated doses typically used for cytotoxic therapeutics in the clinic, followed by a recovery period. […] Drug selection pressure was removed after ˜3-4 months of cycle treatments when the level of resistance no longer increased after continued drug exposure. […] Data were collected from various thawed cryopreserved populations derived from a single selection, over approximately 1-2 years after model development to ensure consistency in the results.
# Cells were seeded in 96-well plates at low density, then treated the following day with ADCs and unconjugated payloads at 3-fold serial dilutions at 10 concentrations in duplicate. Cells were incubated for 4 days in a humidified 37° C./5% CO2 incubator. The plates were harvested by incubating with CellTiter® 96 AQueous One MTS Solution (Promega, Madison, Wis.) for 1.5 hours and absorbance measured on a Victor plate reader (Perkin-Elmer, Waltham, Mass.) at wavelength 490 nm. IC50 values were calculated using a four-parameter logistic model with XLfit (IDBS, Bridgewater, N.J.).
# [4] = tested on: 144580 breast patient-derived xenografts; conditions: all doses tested (1, 5, 3 and 6 mg/kg), Q4d×4
# Experimental: (§4) For each model described below the first dose was given on Day 1. The tumors were measured at least once a week and their volume was calculated with the formula: tumor volume (mm^3)=0.5×(tumor width^2)(tumor length). The mean tumor volumes (±S. E. M.) for each treatment group were calculated having a maximum of 8-10 animals and a minimum of 6-8 animals to be included.
# The 144580 breast patient-derived xenografts were subcutaneously passaged in vivo as fragments from animal to animal in nude (Nu/Nu) female mice. When the tumors reached a volume of 150 to 300 mm^3, they were staged to ensure uniformity of the tumor size among various treatment groups.
# N87 xenografts = experiment: T-DM1 resistance generated in vivo in N87 xenografts and follow-on treatment; set-up: species or system mouse; conditions: […] weekly
# Experimental: Tumors were measured twice per week or weekly and mass calculated as volume=(width×width×length)/2.
# N87 tumors = experiment: In vivo efficacy in N87 tumors in NSG mice; set-up: species or system mouse; conditions: N87 model; 6 and 10 mg/kg Q4D×4
# Experimental: (§5) In order to determine if the resistance observed in cell culture was recapitulated in vivo, parental N87 cells and N87-TM-2 cells were expanded and injected into the flanks of Female NOD scid gamma (NSG) immunodeficient mice (NOD. Cg-Prkdcscid II2rgtm1Wjl/SzJ) obtained from The Jackson Laboratory (Bar Harbor, Me.). Mice were injected subcutaneously in the right flank with suspensions of either N87 or N87-TM cells (7.5×10^6 cells per injection, with 50% Matrigel). Mice were randomized into study groups when tumors reached ˜0.3 g (˜250 mm^3). […] Tumors were measured weekly and mass calculated as volume=(width×width×length)/2. Time-to-event analysis (tumor doubling) was conducted and significance evaluated by Log-rank (Mantel-Cox) test.
# N87 gastric xenografts = experiment: N87 gastric xenograft model; format: in vivo, mouse; conditions: IV Q4d×4
# Experimental: as §4
# When the tumors reached a volume of 250 to 450 mm^3, the tumors were staged to ensure uniformity of the tumor mass among various treatment groups.
# [5] = tested on: 37622 patient-derived xenografts; conditions: 10 mg/kg, Q4d×4
# Experimental: as §4
# The 37622 patient-derived xenografts were subcutaneously passaged in vivo as fragments from animal to animal in nude (Nu/Nu) female mice. When the tumors reached a volume of 150 to 300 mm^3, they were staged to ensure uniformity of the tumor size among various treatment groups.
# [6] = tested on: N87 cell line xenograft tumors; experiment: Bystander effect, immunohistocytochemistry (pHH3, human IgG) of N87 xenograft tumors; format: in vivo, mouse; conditions: single dose T-DM1 6 mg/kg or T-vc0101 3 mg/kg, tumors harvested 96 hours later
# Text: Tumor sections were stained for human IgG to detect ADC bound to tumor cells and phosphhistone H3 (pHH3) to detect mitotic cells as readout of the proposed mechanism of action for the payloads of both ADCs.
# N87-TM tumors = experiment: In vivo efficacy in T-DM1 resistant N87-TM tumors in NSG mice; set-up: species or system mouse; conditions: N87-TM-2 model; 6 and 10 mg/kg
# Experimental: as §5
# JIMT-1 breast xenografts = conditions: even at 6 mg/kg, IV Q4d×4
# Experimental: as §4
# To generate xenografts, nude (Nu/Nu) female mice were implanted subcutaneously with 5×10^6 JIMT-1 cells (DSMZ# ACC-589) in 50% Matrigel (BD Biosciences). When the tumors reached a volume of 200 to 250 mm^3, the tumors were staged to ensure uniformity of the tumor mass among various treatment groups.
# [7] = read-out: sensitivity to free payload (IC50), N87-T-DM1_Ms2
# [8] = read-out: sensitivity to free payload (IC50), N87-T-DM1_Ms7
# [9] = read-out: sensitivity to free payload (IC50), N87-T-DM1_Ms17
compound,measurement,setting,value
EDB-L19-vc-0101: anti-EDB antibody L19 conventionally conjugated to vc-0101,tumor response,PDX-PAX-13565,tumor regression in a dose dependent manner
same,tumor response,H-1975; 3 mg/kg,tumor regressions
same,tumor response,"H-1975; 3 mg/kg, and as low as […]",tumor regression
same,tumor response,"H-1975; 0.3, 1 and 3 mg/kg",tumor regression in a dose dependent manner
same,tumor response,H-1975; highest doses evaluated (3 mg/kg ADC1; 1 mg/kg ADC9),tumor regression
same,tumor response,Ramos,tumor regression
same,tumor response,HT29,tumor regression
same,tumor response,PDX-NSX-11122; 1 mg/kg,delayed tumor growth
same,tumor response,PDX-NSX-11122; 3 mg/kg,complete regressions
same,tumor response,PDX-NSX-11122; 3 mg/kg and […],tumor regression
same,efficacy compared to isotype negative control ADCs and disulfide linker ADCs,"PDX-NSX-11122; 1 and 3 mg/kg vs 10 mg/kg EDB-L19-diS-DM1, 5 mg/kg EDB-L19-diS-C2OCO-1569",greater efficacy
same,tumor response,PDX-PAX-12534,tumor regression in a dose dependent manner
same,Avg IC50,[1],"15,346 ng/ml"
COc1cccc2c1C(=O)c1c(O)c3c(c(O)c1C2=O)C[C@@](O)(C(=O)CO)C[C@@H]3O[C@H]1C[C@H](N)[C@H](O)[C@H](C)O1 [Doxorubicin],IC50,[2]; [7],46 nM
same,IC50,[2]; [8],79 nM
same,IC50,[2]; [9],34 nM
same,sensitivity of T-DM1 resistant cells generated in vivo,[2],No resistance
same,IC50,N87 parental cells,48 nM
same,sensitivity of N87-TM cells,[3],lack of cross-resistance
COc1cc2cc(c1Cl)N(C)C(=O)C[C@H](OC(=O)[C@H](C)N(C)C(=O)CCS)[C@]1(C)O[C@H]1[C@H](C)[C@@H]1C[C@@](O)(NC(=O)O1)[C@H](OC)/C=C/C=C(\C)C2 [DM1],sensitivity of N87-TM cells,[3],retained sensitivity
T-DM1,tumor response,[4],ineffective
same,mice responding to initial T-DM1 treatment,N87 xenografts,17 out of 20
same,mice in which tumor doubling was prevented for at least 60 days,N87 tumors,> 50%
same,tumor response,N87 gastric xenografts; 10 mg/kg,complete regression of tumors
same,tumor response,N87 gastric xenografts; 1 and 3 mg/kg,delayed tumor growth
same,tumor response,[5],only provided some therapeutic benefit
same,bystander effect,[6],is not
same,prevention of tumor doubling,N87-TM tumors,failed to do so
same,tumor response,JIMT-1 breast xenografts,inactive
EDB-L19-diS-DM1,Avg IC50,[1],237 ng/mL
CC(=O)O[C@H]1C(=O)[C@@]2(C)[C@H]([C@H](OC(=O)c3ccccc3)[C@]3(O)C[C@H](OC(=O)[C@H](O)[C@@H](NC(=O)c4ccccc4)c4ccccc4)C(C)=C1C3(C)C)[C@]1(OC(C)=O)CO[C@@H]1C[C@@H]2O [paclitaxel],sensitivity of N87-TM cells,[3],lack of cross-resistance
"CC[C@H](C)[C@@H]([C@@H](CC(=O)N1CCC[C@H]1[C@H](OC)[C@@H](C)C(=O)N[C@@H](Cc1ccccc1)c1nccs1)OC)N(C)C(=O)[C@@H](NC(=O)C(C)(C)N)C(C)C [compound 0101, 2-methylalanyl-N-[(3R,4S,5S)-3-methoxy-1-{(2S)-2-[(1R,2R)-1-methoxy-2-methyl-3-oxo-3-{[(1 S)-2-phenyl-1-(1,3-thiazol-2-yl)ethyl]amino}propyl]pyrrolidin-1-yl}-5-methyl-1-oxoheptan-4-yl]-N-methyl-L-valinamide] (H-[Aib]V[Dil][Dolaproine]-Doe)",IC50,[2]; [7],0.4 nM
same,IC50,[2]; [8],0.6 nM
same,IC50,[2]; [9],0.28 nM
same,sensitivity of T-DM1 resistant cells generated in vivo,[2],surprisingly sensitive; also recorded: not resistant
same,IC50,N87 parental cells,0.5 nM
same,sensitivity of N87-TM cells,[3],retained sensitivity
